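Cultured in 96-well plates, cells were exposed to test compound for 48 hours across five concentrations. GI50 marks 50% less growth. TGI marks complete inhibition of growth.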
Key:
Test in all cases: inhibition of tumour cell growth, NCI panel, 48 h; in the data active means GI50 below about 0.43 µM; inactive means the rest
[1] = system: K-562 leukemia
[2] = system: RXF 393 renal
[3] = system: SF-295 CNS
[4] = system: HOP-62 NSCLC
[5] = system: SNB-19 CNS
[6] = system: SK-OV-3 ovarian
[7] = system: HOP-92 NSCLC
[8] = system: UACC-62 melanoma
[9] = system: SF-268 CNS
[10] = system: BT-549 breast
[11] = system: MDA-MB-231 breast
[12] = system: MALME-3M melanoma
[13] = system: IGROV1 ovarian
[14] = system: NCI-H522 lung
[15] = system: HS 578T breast
[16] = system: SNB-75 CNS
[17] = system: 786-0 renal

N#C/C(=C\c1ccc(-c2ccc(Cl)cc2)o1)C(=O)Nc1ncc(Cc2ccc(Br)cc2)s1
> 100 µM: TGI [1] | TGI [4] | TGI [5] | TGI [8] | TGI [9] | TGI [11] | TGI [13] | TGI [14]
inactive: GI50 [1] 4.47 µM | GI50 [2] 8.85 µM | GI50 [3] 5.22 µM | GI50 [4] 2.47 µM | GI50 [5] 3.58 µM | GI50 [6] 3.92 µM | GI50 [7] 1.13 µM | GI50 [8] 2.95 µM | GI50 [9] 3.73 µM | GI50 [10] 1.84 µM | GI50 [11] 3.38 µM | GI50 [12] 1.55 µM | GI50 [13] 2.89 µM | GI50 [14] 2.64 µM | GI50 [15] 1.23 µM | GI50 [16] 0.794 µM | GI50 [17] 2.45 µM
4.26 µM: TGI [12]
6.27 µM: TGI [15]
8.28 µM: TGI [7]
6.8 µM: TGI [17]
33.7 µM: TGI [2]
51.5 µM: TGI [3]
25.9 µM: TGI [6]
3.83 µM: TGI [16]
8.69 µM: TGI [10]

Source: PubChem BioAssay (NCI)
